From US7470429B2, “Methods and compositions for increasing the target-specific toxicity of a chemotherapy drug” (priority 1998, dated 2008)

Tests used:
[1] = molecular target: T1, human beta-D-glucuronidase (Homo sapiens, UniProt P08236); settings: cited from earlier work
T1 sequence (P08236 23-651): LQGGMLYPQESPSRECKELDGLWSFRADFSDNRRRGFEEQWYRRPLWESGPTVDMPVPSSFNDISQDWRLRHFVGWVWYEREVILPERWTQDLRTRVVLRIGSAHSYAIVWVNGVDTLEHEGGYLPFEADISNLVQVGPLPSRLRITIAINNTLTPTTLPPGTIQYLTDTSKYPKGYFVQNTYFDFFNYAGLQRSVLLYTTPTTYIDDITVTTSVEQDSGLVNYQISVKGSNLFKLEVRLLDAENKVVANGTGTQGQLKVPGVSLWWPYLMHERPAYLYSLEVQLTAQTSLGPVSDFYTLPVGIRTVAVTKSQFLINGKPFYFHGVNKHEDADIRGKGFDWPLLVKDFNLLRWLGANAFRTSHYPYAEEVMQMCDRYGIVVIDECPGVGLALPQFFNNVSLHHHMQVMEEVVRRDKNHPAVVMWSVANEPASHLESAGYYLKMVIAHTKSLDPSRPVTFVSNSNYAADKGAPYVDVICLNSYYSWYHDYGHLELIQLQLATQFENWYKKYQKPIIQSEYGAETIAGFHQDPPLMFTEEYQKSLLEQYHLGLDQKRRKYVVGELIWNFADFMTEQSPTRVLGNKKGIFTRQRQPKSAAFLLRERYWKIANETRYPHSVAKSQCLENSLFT

[2] = test system: lymphoma; assay: Therapy of lymphoma in a human patient after pretargeting of enzyme conjugates; type: in vivo; settings: 10 mg i.v. after pretargeted Fab′-glucuronidase and esterase conjugates; compared to 10 mg epirubicin prior to targeting
Procedure: A human patient suffering from lymphoma is infused intravenously with a sterile, pyrogen-free PBS solution containing 5 mg each of the 1-13 1-labeled anti-lymphoma Fab′-glucuronidase and esterase conjugates prepared according to Example 1 hereof.
The patient is then infused intravenously with a sterile, pyrogen-free PBS solution containing 10 mg of epirubicin methyl ester.

[3] = test system: colorectal cancer; assay: Tumor therapy of colorectal cancer patient with bsMAb, DTPA-enzyme conjugates and CPT-11; type: in vivo, human; settings: then standard dose CPT-11
Procedure: A patient with colorectal cancer is given an injection of the bsMAb comprised of an […]-14 cross-linked with an anti-DTPA Fab' fragment, prepared according to Example 3. After 48 h to allow for maximum accretion in tumors, an amount of galactose-[…], prepared according to Example 4, sufficient to clear nearly all non-target-bound MN-14-IgG ×734-Fab' from the circulation is administered. This amount is between 5 and 15 times the amount of primary bsMAb remaining in circulation at the time-point specified. Three hours after administration of the galactose-[…], a tumor-saturating amount of a mixture of the DTPA-CE and […] conjugates is given, and allowed to clear circulation and normal tissues. […] A patient with colorectal cancer is given an injection of the bsMAb as in Example 6. After 48 h to allow for maximum accretion in tumors, an excess amount of same mixture of the DTPA-CE and DTPA-glucuronidase conjugates as in Example 6 is given. Three hours later an amount of galactose-[…] sufficient to clear nearly all non-target-bound […]-IgG ×734-Fab'-DTPA-enzymes from the circulation is administered. This amount is between 5 and 15 times the amount of primary bsMAb complexes remaining in circulation at the time-point specified.

[4] = test system: uridine diphosphate glucuronosyl transferase (UDP-GT); settings: pretreatment of rats; cited from earlier work
[5] = pretreatment of rats; cited from earlier work

COc1cccc2c1C(=O)c1c(O)c3c(c(O)c1C2=O)C[C@@](O)(C(=O)CO)C[C@@H]3O[C@H]1C[C@H](N)[C@@H](O)[C@H](C)O1 [epirubicin]
substrate for human beta-D-glucuronidase [1]: substrate for human beta-D-glucuronidase

epirubicin methyl ester
reduction in the lymphoma by radioimmunodetection [2]: significant reduction in the lymphoma

CCc1c2c(nc3ccc(OC(=O)N4CCC(N5CCCCC5)CC4)cc13)-c1cc3c(c(=O)n1C2)COC(=O)[C@]3(O)CC [CPT-11, irinotecan]
effect on tumors ([3]; Example 6: bsMAb, galactose-W12 clearing, then DTPA-enzyme conjugates): destroying the tumors | effect on tumors ([3]; Example 7: bsMAb, DTPA-enzyme conjugates, then galactose-W12 clearing): destroying said tumors

CCCC(CCC)C(=O)O [valproic acid]
formation of SN-38G [4]: inhibited the formation of SN-38G | AUC for SN-38 from subsequently-administered CPT-11 [5]: 270%
